In PubChem BioAssay (NCI):
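Step 1: Grow cells in 96-well plates. Step 2: Expose to compound for 48 hours at 5 concentrations. Step 3: Interpolate endpoints linearly; if unreached, use highest concentration. GI50: concentration for 50% inhibition of growth. TGI: total growth inhibition.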

Columns and labels:
Experiment in all cases: DTP human tumour cell line panel, 48 h
ACHN renal = tested on: ACHN renal
CAKI-1 renal = tested on: CAKI-1 renal
CCRF-CEM leukemia = tested on: CCRF-CEM leukemia
EKVX NSCLC = tested on: EKVX NSCLC
HL-60(TB) leukemia = tested on: HL-60(TB) leukemia
HT29 colon = tested on: HT29 colon
M14 melanoma = tested on: M14 melanoma
OVCAR-5 ovarian = tested on: OVCAR-5 ovarian
SN12C renal = tested on: SN12C renal
UACC-62 melanoma = tested on: UACC-62 melanoma

Compound	TGI (ACHN renal)	TGI (CAKI-1 renal)	TGI (CCRF-CEM leukemia)	TGI (EKVX NSCLC)	TGI (HL-60(TB) leukemia)	TGI (HT29 colon)	TGI (M14 melanoma)	TGI (OVCAR-5 ovarian)	TGI (SN12C renal)	GI50 (ACHN renal)	GI50 (CAKI-1 renal)	GI50 (CCRF-CEM leukemia)	GI50 (EKVX NSCLC)	GI50 (HL-60(TB) leukemia)	GI50 (HT29 colon)	GI50 (OVCAR-5 ovarian)	GI50 (SN12C renal)	GI50 (UACC-62 melanoma)	TGI (UACC-62 melanoma)
COc1ccc(-c2cc(-c3cc(F)c(Cl)cc3Cl)on2)cc1OC	> 100 µM	> 100 µM	> 100 µM	> 100 µM	63.4 µM	> 100 µM	> 100 µM	> 100 µM	> 100 µM										
Oc1ccc(C#CCOc2ccccc2)cc1CNCCN(Cc1ccccn1)Cc1ccccn1	2.38 µM	2.75 µM	10.7 µM	3.33 µM	4.21 µM	12.6 µM		3.72 µM	2.65 µM	1.16 µM	1.33 µM	0.833 µM	1.24 µM	1.19 µM	2.54 µM	1.18 µM	1.08 µM	1.68 µM	3.59 µM
CCN(CC)C(=O)N1CN(c2ccccc2)C2(CCN(CCCSc3ccc(F)cc3)CC2)C1=O	15.8 µM	> 100 µM	> 100 µM	33.6 µM	19.4 µM	13 µM	15.3 µM	36.9 µM	39.8 µM										
N#Cc1nc(CCC(c2nc(C#N)c(N)o2)N2C(=O)c3ccccc3C2=O)oc1N (stereo unspecified)	> 100 µM	> 100 µM		> 100 µM	> 100 µM	> 100 µM	> 100 µM	> 100 µM	> 100 µM										> 100 µM
COC(=O)c1ccccc1C1CN=NC12Cc1cccc(C)c1C2=O (stereo unspecified)	> 100 µM	> 100 µM	> 100 µM	> 100 µM	72.1 µM	> 100 µM		> 100 µM	> 100 µM										> 100 µM
COc1cc(C2c3cc4c(cc3[C@@H](Nc3cccc([N+](=O)[O-])c3)C3COC(=O)[C@H]23)OCO4)cc(OC)c1O (stereo partly specified)		7.46 µM		> 38.2 µM	4.3 µM	13.1 µM		> 100 µM	> 22.2 µM										15.7 µM
c1ccc(N=C2SC3=NCCN3C2=Nc2ccccc2)cc1		38.2 µM	11.8 µM			41.3 µM	37.8 µM	34.9 µM	70 µM										22.7 µM
CC(Cc1ccccc1)NC1=NCCO1 (stereo unspecified)	> 100 µM	> 100 µM		> 100 µM		40.3 µM		> 100 µM	53.3 µM										> 100 µM
CC(NC(C#N)CC12CC3CC(CC(C3)C1)C2)c1ccccc1 (stereo unspecified)	> 100 µM	> 100 µM	59.4 µM	> 100 µM	42.3 µM	> 100 µM	> 100 µM	> 100 µM											> 100 µM
CSCCC(NC(=O)OCc1ccccc1)NC(=O)OCc1ccccc1	> 100 µM	> 100 µM				> 100 µM	> 100 µM	> 100 µM	> 100 µM										
c1ccc(C(CCN2CC3CCC(CC3)C2)c2ccccc2)cc1	57.8 µM	> 100 µM		> 100 µM		48.4 µM	27.3 µM	56.8 µM	84.7 µM										35.3 µM
O=C1c2ccccc2-c2nc(/C=C/c3ccccc3)cc3c2c1nc1ccccc13	> 100 µM	> 100 µM	> 100 µM	> 100 µM		92 µM	> 100 µM	> 100 µM	> 100 µM										25.7 µM
O=C(OCCC12CC3CC(CC(C3)C1)C2)c1ccc(NCc2cc(O)ccc2O)cc1	5.18 µM	1.11 µM	15.9 µM	4.88 µM	0.853 µM	10.6 µM	3.37 µM		11.2 µM										3.61 µM
O=[N+]([O-])c1ccc2c(c1)c(S(=O)(=O)O)cc1nonc12	> 100 µM	> 100 µM		> 100 µM	> 100 µM	> 100 µM	> 100 µM	> 100 µM	> 100 µM										> 100 µM
NS(=O)(=O)c1nnc(NS(=O)(=O)c2ccccc2C(=O)O)s1	> 100 µM	> 100 µM		> 100 µM		> 100 µM	> 100 µM	> 100 µM	> 100 µM										> 100 µM
CCSc1nc(N)c2c(-c3ccccc3)c3c(nc2n1)CCC3	> 100 µM	> 100 µM	> 100 µM	> 100 µM	> 100 µM		> 100 µM	> 100 µM	> 100 µM										> 100 µM
CC(=O)NC(Cc1ccc(OP(=O)(OCc2ccc([N+](=O)[O-])o2)N(C)CCCCCl)cc1)C(=O)NC(C)c1ccc(OCC2CCCCC2)c(C(N)=O)c1 (stereo unspecified)	33.4 µM	> 100 µM	10.1 µM		6.83 µM	4.83 µM	5.49 µM	21.2 µM	6.53 µM										5.34 µM
Cc1nc2ccccc2n1Cc1nnc(N)o1	> 100 µM		> 100 µM	> 100 µM	> 100 µM	> 100 µM	> 100 µM	> 100 µM	> 100 µM										> 100 µM
CC(=O)/C=C(\O)c1[nH]c(C(=O)O)cc1C1CCN(Cc2ccccc2)C1=O (stereo unspecified)	> 100 µM	> 100 µM		60.6 µM		89 µM	29.6 µM	80.2 µM											41.7 µM
O=C(OCc1ccccc1)N1CCN(C(=O)OCc2ccccc2)CCN(C(=O)OCc2ccccc2)CCN(C(=O)OCc2ccccc2)CCN(C(=O)OCc2ccccc2)CC1	> 100 µM	> 100 µM		> 100 µM			> 100 µM	> 100 µM	> 100 µM										> 100 µM
CC(=O)Oc1ccc(/C=C/C(=O)O[C@H]2CCCC[C@@H]2OC(=O)/C=C/c2ccc(OC(C)=O)c(OC(C)=O)c2)cc1OC(C)=O	33.4 µM	> 100 µM	16.9 µM	44 µM		> 100 µM	25.6 µM	28.4 µM	29.8 µM										17.7 µM
CC(=O)O[C@H]1C[C@H]2C(=S)Nc3ccccc3C(=S)N2C1	> 100 µM	> 100 µM	> 100 µM	> 100 µM		> 100 µM	> 100 µM	> 100 µM	> 100 µM										> 100 µM
C=CCN(c1cc(OC)c2[nH]cc(C)c2c1[N+](=O)[O-])S(C)(=O)=O	> 100 µM	> 100 µM	> 100 µM	> 100 µM	> 100 µM		> 100 µM	> 100 µM	> 100 µM										> 100 µM
